Measured values published in ChEMBL document CHEMBL5705899 (Biochem J, 2014).
Calls of active or inactive are those of the source. The calls are words filed in the database; no cut-off is given here.

What was measured:
[1] = target: CDK7/Cyclin H/MNAT1 (Homo sapiens) (UniProt P51946+P50613+P51948); test: Inhibition of human CDK7/CyclinH/MAT1 at 1 uM using RBER-CHKtide as substrate in presence of 33P-ATP by ProQinase assay; format: protein-complex assay
[2] = target: cGMP-dependent protein kinase 1 (Homo sapiens) (UniProt Q13976); test: Inhibition of human PRKG1 at 1 uM using 3xChocktide-PKC as substrate in presence of 33P-ATP by ProQinase assay
cGMP-dependent protein kinase 1 (Homo sapiens), sequence (Q13976 whole entry): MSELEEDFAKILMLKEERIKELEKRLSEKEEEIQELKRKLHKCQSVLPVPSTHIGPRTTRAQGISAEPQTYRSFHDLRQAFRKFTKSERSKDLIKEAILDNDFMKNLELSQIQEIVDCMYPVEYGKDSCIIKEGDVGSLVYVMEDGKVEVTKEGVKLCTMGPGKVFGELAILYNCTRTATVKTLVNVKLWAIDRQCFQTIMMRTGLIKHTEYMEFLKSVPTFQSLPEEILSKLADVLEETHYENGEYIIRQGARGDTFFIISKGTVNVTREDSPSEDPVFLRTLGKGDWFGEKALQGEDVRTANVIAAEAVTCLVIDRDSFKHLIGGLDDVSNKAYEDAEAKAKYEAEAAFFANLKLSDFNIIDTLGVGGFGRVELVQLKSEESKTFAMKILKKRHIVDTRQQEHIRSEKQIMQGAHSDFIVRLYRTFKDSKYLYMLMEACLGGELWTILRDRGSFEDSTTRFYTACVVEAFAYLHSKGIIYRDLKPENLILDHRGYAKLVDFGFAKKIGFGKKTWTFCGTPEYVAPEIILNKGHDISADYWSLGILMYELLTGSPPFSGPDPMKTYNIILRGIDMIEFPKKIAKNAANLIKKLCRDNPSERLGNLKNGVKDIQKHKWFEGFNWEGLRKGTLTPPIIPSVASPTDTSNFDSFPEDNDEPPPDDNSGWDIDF

[3] = target: Myosin light chain kinase, smooth muscle (Homo sapiens) (UniProt Q15746); test: Inhibition of human MYLK at 1 uM using RB-S6P as substrate in presence of 33P-ATP by ProQinase assay
Myosin light chain kinase, smooth muscle (Homo sapiens), sequence (Q15746 whole entry): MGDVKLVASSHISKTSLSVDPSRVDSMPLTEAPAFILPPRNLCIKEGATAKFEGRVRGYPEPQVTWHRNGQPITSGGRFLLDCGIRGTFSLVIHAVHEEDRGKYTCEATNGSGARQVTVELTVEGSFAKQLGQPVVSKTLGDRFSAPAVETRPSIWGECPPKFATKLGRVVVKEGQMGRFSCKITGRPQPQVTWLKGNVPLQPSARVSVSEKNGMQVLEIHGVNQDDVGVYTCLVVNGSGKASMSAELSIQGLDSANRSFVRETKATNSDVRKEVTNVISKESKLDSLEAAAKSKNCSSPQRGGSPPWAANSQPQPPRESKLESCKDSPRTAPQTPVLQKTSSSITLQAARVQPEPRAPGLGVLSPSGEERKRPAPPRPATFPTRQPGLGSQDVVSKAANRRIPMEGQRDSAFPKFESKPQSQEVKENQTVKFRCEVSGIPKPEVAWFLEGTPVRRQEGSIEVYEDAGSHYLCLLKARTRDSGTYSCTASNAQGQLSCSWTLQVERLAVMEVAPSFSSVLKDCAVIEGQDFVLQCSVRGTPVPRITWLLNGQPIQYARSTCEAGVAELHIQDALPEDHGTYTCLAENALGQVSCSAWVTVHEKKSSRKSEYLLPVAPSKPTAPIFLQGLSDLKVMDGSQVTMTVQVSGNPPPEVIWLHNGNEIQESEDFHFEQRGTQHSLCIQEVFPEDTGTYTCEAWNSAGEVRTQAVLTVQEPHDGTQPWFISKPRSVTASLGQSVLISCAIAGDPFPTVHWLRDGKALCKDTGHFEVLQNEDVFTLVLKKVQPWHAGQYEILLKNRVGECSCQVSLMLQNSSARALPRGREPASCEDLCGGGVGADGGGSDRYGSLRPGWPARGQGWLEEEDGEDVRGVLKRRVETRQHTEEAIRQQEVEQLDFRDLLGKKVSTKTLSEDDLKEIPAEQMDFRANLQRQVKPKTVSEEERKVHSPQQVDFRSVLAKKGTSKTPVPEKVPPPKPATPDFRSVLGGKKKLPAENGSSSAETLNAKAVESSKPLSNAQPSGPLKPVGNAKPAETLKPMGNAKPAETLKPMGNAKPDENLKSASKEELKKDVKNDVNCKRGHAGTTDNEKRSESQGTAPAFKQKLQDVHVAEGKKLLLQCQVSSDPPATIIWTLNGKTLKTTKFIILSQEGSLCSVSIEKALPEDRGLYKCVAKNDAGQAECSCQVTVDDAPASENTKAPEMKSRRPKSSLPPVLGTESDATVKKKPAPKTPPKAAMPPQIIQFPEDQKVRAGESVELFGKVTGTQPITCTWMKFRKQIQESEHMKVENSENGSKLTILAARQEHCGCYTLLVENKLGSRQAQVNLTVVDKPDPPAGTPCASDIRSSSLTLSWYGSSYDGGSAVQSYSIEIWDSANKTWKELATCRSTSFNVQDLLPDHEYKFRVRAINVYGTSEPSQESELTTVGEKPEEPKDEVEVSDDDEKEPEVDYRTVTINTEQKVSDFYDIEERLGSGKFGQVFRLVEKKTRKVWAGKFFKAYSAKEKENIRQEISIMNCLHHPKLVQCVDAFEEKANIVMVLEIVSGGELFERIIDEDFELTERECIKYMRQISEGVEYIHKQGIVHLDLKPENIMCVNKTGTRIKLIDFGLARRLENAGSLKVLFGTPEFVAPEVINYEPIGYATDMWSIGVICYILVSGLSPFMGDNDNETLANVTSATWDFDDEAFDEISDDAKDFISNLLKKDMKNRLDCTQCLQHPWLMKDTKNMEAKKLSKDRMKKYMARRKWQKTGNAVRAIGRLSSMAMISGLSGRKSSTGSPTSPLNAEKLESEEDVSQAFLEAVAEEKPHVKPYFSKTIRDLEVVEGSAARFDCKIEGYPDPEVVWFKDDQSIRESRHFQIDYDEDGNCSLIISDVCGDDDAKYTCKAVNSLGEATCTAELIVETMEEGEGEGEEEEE

[4] = target: Mitogen-activated protein kinase kinase kinase 20 (Homo sapiens) (UniProt Q9NYL2); test: Inhibition of human ZAK at 1 uM using MBP as substrate in presence of 33P-ATP by ProQinase assay
[5] = target: Dual specificity mitogen-activated protein kinase kinase 6 (Homo sapiens) (UniProt P52564); test: Inhibition of recombinant human N-terminal MBP-tagged MKK6 (2 to 334 residues) expressed in Escherichia coli assessed as remaining activity at 1 uM using SAPK2a as substrate incubated for 30 mins in presence of [gamma-33P]ATP by filter binding method relative to control
Dual specificity mitogen-activated protein kinase kinase 6 (Homo sapiens), sequence (P52564 whole entry, the tested form may be a part): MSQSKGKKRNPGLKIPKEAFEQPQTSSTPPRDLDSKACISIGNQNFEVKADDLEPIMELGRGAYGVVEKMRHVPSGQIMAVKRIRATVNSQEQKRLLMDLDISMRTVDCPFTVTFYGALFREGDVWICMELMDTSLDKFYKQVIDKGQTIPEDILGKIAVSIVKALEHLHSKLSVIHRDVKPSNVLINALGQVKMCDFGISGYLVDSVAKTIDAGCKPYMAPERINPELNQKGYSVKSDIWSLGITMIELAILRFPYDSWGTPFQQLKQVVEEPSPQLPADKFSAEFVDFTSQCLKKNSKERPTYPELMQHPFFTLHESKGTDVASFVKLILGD

[6] = target: Phosphatidylinositol 4-kinase beta (Homo sapiens, UniProt Q9UBF8); test: Inhibition of recombinant human N-terminal His6-tagged PIK4Cbeta (1 to 801 residues) expressed in baculovirus expression system at 1 uM using […] as substrate incubated for 45 mins by ADP-Glo assay
[7] = target: Protein kinase C gamma type (Homo sapiens) (UniProt P05129); test: Inhibition of human PKCgamma at 1 uM using 3xChocktide-PKC as substrate in presence of 33P-ATP by ProQinase assay
[8] = target: Mitogen-activated protein kinase 8 (Homo sapiens) (UniProt P45983); test: Inhibition of recombinant human His6-tagged JNK1 (1 to 384 residues) expressed in baculovirus infected Sf21 cells assessed as remaining activity at 1 uM using ATF2 as substrate incubated for 30 mins in presence of [gamma-33P]ATP by filter binding method relative to control
[9] = target: Serine/threonine-protein kinase BRSK2 (Homo sapiens) (UniProt Q8IWQ3); test: Inhibition of recombinant human N-terminal His6-tagged BRSK2 (2 to 674 residues) expressed in baculovirus infected Sf21 cells assessed as remaining activity at 1 uM using KKLNRTLSFAEPG as substrate incubated for 30 mins in presence of [gamma-33P]ATP by filter binding method relative to control
[10] = target: Mitogen-activated protein kinase kinase kinase kinase 5 (Homo sapiens) (UniProt Q9Y4K4); test: Inhibition of human MAP4K5 at 1 uM using casein as substrate in presence of 33P-ATP by ProQinase assay
[11] = target: Serine/threonine-protein kinase Nek7 (Homo sapiens) (UniProt Q8TDX7); test: Inhibition of human NEK7 at 1 uM using casein as substrate in presence of 33P-ATP by ProQinase assay
Serine/threonine-protein kinase Nek7 (Homo sapiens), sequence (Q8TDX7 whole entry, looked up, the tested form may be a part): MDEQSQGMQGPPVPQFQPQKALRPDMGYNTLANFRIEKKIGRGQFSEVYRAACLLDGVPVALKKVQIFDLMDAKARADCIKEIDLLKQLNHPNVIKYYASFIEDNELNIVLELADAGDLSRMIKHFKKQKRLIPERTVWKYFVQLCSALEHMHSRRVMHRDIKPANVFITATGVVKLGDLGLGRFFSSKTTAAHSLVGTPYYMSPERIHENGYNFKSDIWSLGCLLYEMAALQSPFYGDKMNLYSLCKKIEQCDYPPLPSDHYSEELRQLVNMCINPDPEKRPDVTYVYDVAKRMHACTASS

[12] = target: Tyrosine-protein kinase CSK (Homo sapiens) (UniProt P41240); test: Inhibition of recombinant human N-terminal GST-tagged CSK (1 to 450 residues) expressed in Escherichia coli assessed as remaining activity at 1 uM Cdc2 peptide as substrate incubated for 30 mins in presence of [gamma-33P]ATP by filter binding method relative to control
Tyrosine-protein kinase CSK (Homo sapiens), sequence (P41240 2-450 limits assumed): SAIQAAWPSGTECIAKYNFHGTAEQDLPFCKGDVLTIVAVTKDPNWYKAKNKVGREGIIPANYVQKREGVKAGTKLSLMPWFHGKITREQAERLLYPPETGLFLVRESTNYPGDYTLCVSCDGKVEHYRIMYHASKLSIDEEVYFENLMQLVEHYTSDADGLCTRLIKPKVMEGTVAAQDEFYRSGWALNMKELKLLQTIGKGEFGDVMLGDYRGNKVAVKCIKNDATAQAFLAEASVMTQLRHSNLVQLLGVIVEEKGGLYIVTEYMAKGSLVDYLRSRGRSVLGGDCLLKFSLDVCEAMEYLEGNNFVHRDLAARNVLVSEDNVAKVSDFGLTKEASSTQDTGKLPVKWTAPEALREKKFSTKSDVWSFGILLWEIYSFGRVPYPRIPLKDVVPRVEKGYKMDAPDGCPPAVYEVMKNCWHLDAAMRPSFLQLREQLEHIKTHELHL

[13] = target: Phosphatidylinositol 4,5-bisphosphate 3-kinase catalytic subunit delta isoform (Homo sapiens) (UniProt O00329); test: Inhibition of p100delta (unknown origin) at 1 uM
[14] = target: CDK6/cyclin D1 (Homo sapiens) (UniProt P24385+Q00534); test: Inhibition of human CDK6/CycD1 at 1 uM using RBER-CHKtide as substrate in presence of 33P-ATP by ProQinase assay; format: protein-complex assay
[15] = target: Receptor-interacting serine/threonine-protein kinase 2 (Homo sapiens) (UniProt O43353); test: Inhibition of recombinant human N-terminal GST-tagged RIPK2 (2 to 311 residues) expressed in baculovirus infected Sf21 cells assessed as remaining activity at 1 uM using MBP as substrate incubated for 30 mins in presence of [gamma-33P]ATP by filter binding method relative to control
Receptor-interacting serine/threonine-protein kinase 2 (Homo sapiens), sequence (O43353 whole entry, the tested form may be a part): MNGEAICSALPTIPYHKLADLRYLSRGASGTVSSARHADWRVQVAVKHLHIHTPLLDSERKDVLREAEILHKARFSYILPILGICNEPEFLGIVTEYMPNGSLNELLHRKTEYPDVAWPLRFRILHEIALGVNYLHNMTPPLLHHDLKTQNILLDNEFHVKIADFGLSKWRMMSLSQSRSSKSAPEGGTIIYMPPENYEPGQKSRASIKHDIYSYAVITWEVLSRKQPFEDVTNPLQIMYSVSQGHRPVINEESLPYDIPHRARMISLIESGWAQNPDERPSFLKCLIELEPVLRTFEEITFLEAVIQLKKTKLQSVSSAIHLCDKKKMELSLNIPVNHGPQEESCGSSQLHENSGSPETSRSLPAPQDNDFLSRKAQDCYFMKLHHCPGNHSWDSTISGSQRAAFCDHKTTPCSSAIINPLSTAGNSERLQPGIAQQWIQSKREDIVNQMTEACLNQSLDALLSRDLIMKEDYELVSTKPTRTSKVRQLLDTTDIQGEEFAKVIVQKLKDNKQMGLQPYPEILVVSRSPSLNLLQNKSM

[16] = target: Platelet-derived growth factor receptor beta (Homo sapiens) (UniProt P09619); test: Inhibition of human PDGFRbeta at 1 uM using poly(Ala,Glu,Lys,Tyr) as substrate in presence of 33P-ATP by ProQinase assay
[17] = target: Calcium/calmodulin-dependent protein kinase kinase 2 (Homo sapiens) (UniProt Q96RR4); test: Inhibition of human CAMKK2 at 1 uM using RBER-GSK3 as substrate in presence of 33P-ATP by ProQinase assay
Calcium/calmodulin-dependent protein kinase kinase 2 (Homo sapiens), sequence (Q96RR4 2-588 limits assumed): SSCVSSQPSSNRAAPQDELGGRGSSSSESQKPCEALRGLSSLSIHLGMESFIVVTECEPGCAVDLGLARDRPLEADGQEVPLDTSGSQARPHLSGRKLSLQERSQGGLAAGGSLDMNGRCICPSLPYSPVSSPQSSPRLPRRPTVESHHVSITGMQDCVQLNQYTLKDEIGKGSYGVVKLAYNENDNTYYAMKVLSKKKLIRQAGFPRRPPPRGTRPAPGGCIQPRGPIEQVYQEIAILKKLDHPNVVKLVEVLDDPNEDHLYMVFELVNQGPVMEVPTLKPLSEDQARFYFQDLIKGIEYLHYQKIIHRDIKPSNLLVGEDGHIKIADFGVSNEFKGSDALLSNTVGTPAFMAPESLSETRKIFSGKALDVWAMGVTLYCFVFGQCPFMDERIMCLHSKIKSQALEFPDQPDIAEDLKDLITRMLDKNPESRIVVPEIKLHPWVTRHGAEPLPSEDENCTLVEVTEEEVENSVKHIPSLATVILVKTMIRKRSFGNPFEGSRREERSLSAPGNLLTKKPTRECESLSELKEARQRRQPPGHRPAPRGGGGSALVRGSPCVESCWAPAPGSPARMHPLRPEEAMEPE

[18] = target: CDK8/Cyclin C (Homo sapiens) (UniProt P49336+P24863); test: Inhibition of human CDK8/CyclinC at 1 uM using RBER-CHKtide as substrate in presence of 33P-ATP by ProQinase assay; format: protein-complex assay
[19] = target: Interferon-induced, double-stranded RNA-activated protein kinase (Homo sapiens) (UniProt P19525); test: Inhibition of human EIF2AK2 at 1 uM using RB-CTF as substrate in presence of 33P-ATP by ProQinase assay

SMILES: CC(C)(O)CNc1ncc(-c2ccnc(Nc3ccnc(Cl)c3)n2)c(CC2CC2)n1
- inhibition [1]: inactive
- inhibition [2]: inactive
- inhibition [3]: inactive
- inhibition [4]: inactive
- Activity [5]: 124%
- inhibition [6]: inactive
- inhibition [7]: inactive
- Activity [8]: 112%
- Activity [9]: 98%
- inhibition [10]: inactive
- inhibition [11]: inactive
- Activity [12]: 132%
- inhibition [13]: inactive
- inhibition [14]: inactive
- Activity [15]: 79%
- inhibition [16]: inactive
- inhibition [17]: inactive
- inhibition [18]: inactive
- inhibition [19]: inactive
